Experimental findings from patent US11739098B2 (BRISTOL-MYERS SQUIBB COMPANY, priority 2017, dated 2023) are described below.

pIC50: −log10 of the molar value.

Type in all cases: cell-based
One test deals with T1, human TLR7 (Homo sapiens, UniProt Q9NYK1).
T1 construct: host or cells: HEK-Blue cells (HEK293-derived reporter line)
T1 sequence (Q9NYK1 27-1049): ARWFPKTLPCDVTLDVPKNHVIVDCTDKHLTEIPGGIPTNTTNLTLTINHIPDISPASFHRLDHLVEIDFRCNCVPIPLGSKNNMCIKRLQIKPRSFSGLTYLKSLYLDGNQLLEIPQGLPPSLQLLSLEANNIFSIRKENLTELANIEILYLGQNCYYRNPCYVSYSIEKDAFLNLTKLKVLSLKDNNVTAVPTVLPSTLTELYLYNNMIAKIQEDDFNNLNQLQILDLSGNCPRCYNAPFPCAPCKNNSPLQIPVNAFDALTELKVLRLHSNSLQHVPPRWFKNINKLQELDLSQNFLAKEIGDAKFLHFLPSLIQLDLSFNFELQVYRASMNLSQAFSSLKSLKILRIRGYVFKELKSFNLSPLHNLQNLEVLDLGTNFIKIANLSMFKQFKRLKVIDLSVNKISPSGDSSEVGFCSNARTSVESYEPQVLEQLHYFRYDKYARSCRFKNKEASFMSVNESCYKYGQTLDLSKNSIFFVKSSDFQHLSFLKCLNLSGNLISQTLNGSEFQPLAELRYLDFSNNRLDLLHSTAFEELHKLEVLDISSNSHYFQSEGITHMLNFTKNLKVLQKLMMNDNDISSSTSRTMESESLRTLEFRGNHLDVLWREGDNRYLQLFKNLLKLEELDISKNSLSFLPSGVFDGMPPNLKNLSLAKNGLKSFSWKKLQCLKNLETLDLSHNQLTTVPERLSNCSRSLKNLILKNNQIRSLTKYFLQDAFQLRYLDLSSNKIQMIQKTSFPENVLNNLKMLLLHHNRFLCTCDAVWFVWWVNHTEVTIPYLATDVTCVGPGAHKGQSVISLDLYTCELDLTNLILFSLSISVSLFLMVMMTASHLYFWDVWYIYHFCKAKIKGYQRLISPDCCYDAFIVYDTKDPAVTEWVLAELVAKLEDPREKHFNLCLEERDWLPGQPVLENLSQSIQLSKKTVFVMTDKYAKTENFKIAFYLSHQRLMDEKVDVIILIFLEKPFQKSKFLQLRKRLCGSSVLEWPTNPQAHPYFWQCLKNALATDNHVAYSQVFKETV
Description: TLR7 inhibition reporter assay (HEK-Blue cells, SEAP reporter, gardiquimod stimulation). The following applies: HEK-Blue cells overexpressing human TLR7, SEAP reporter, gardiquimod 7.5 μM. Summed up: (§1)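 Agonists (final): TLR7 gardiquimod 7.5 μM; TLR8 R848 15.9 μM; TLR9 ODN2006 5 nM. HEK-Blue reporter cells, 30 min RT compound pre-incubation, 0.05 nM–50 μM dose range, 22 h at 37 °C, colorimetric SEAP detection medium. % inhibition relative to agonist+DMSO and known-inhibitor wells.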
A general note: Reporter assays use an easily measured gene product as a stand-in for the process of interest.

Another test has as its target T2, human TLR8 (Homo sapiens, UniProt Q9NR97).
T2 construct: host or cells: HEK-Blue cells (HEK293-derived reporter line)
T2 sequence (Q9NR97 27-1041): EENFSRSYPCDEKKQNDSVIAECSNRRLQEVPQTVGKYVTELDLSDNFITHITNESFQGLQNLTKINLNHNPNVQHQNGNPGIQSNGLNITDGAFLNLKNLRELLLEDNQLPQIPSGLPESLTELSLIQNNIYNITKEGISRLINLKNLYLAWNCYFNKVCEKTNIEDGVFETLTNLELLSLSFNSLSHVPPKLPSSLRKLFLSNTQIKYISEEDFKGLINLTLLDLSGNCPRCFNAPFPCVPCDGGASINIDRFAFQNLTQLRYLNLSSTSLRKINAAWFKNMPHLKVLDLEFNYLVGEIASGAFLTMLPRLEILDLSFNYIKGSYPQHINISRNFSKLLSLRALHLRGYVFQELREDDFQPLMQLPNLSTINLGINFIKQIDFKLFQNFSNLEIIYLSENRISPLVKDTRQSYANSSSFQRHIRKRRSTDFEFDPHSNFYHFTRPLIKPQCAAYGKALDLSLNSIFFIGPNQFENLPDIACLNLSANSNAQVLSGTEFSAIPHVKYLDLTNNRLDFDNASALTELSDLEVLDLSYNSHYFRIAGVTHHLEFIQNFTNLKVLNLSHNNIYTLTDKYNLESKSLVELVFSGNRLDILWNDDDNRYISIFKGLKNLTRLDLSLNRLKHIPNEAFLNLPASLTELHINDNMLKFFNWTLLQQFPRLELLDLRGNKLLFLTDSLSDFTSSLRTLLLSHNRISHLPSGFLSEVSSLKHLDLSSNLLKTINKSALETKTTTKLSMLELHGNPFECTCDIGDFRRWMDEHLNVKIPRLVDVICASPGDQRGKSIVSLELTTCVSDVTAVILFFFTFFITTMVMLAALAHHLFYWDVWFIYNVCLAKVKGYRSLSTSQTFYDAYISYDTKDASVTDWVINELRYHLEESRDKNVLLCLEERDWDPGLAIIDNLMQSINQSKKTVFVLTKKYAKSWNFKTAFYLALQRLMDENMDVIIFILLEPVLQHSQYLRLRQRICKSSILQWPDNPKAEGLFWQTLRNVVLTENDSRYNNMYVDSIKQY
Description: TLR8 inhibition reporter assay (HEK-Blue cells, SEAP reporter, R848 stimulation). Conditions: HEK-Blue cells overexpressing human TLR8, SEAP reporter, R848 15.9 μM. The method in brief: as §1

For another test, the target named is T3, human TLR9 (Homo sapiens, UniProt Q9NR96).
T3 construct: host or cells: HEK-Blue cells (HEK293-derived reporter line)
T3 sequence (Q9NR96 26-1032): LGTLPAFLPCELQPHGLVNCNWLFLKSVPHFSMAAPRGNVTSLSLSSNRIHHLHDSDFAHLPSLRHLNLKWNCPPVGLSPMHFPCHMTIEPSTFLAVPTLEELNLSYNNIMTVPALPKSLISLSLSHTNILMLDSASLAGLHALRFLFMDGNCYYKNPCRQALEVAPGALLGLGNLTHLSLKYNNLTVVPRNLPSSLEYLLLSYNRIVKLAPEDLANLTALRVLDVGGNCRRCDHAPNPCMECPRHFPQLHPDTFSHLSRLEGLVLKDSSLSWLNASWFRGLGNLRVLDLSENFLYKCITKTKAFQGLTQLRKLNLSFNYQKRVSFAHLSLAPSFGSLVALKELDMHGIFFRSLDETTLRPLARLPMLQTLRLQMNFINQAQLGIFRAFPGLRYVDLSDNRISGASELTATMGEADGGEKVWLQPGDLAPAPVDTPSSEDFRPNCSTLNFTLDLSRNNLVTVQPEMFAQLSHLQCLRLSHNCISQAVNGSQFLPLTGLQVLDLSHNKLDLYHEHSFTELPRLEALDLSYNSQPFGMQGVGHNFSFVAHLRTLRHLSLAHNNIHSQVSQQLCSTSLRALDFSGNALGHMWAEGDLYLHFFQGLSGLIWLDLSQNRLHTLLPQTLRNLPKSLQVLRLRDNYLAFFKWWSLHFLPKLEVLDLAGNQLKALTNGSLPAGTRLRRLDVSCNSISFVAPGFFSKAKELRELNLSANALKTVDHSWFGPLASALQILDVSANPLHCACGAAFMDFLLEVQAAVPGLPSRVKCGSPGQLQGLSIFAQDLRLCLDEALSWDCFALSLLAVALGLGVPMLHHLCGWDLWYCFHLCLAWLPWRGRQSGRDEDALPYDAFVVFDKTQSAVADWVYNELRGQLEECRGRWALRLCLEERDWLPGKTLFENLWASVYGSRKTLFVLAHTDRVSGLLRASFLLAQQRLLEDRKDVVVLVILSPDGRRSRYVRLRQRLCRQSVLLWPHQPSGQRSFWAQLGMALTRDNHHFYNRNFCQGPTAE
Description: TLR9 inhibition reporter assay (HEK-Blue cells, SEAP reporter, ODN2006 stimulation). Conditions: HEK-Blue cells overexpressing human TLR9, SEAP reporter, ODN2006 5 nM. The method in brief: as §1

One may read the pIC50 as the negative decadic logarithm of the IC50, by convention in mol/L. Read a high pIC50 as a low IC50.

As for `Cc1cc(-c2[nH]c3ccc(C4CCN(C(=O)CN5CCS(=O)(=O)CC5)CC4)cc3c2C(C)C)cn2nnnc12` [Example 485, 2-(1,1-dioxidothiomorpholino)-1-(4-(3-isopropyl-2-(8-methyltetrazolo[1,5-a]pyridin-6-yl)-1H-indol-5-yl)piperidin-1-yl)ethan-1-one], the pIC50 at human TLR7 was > 7.00; on human TLR8, > 7.00; on human TLR9 it was < 4.30.

In the case of `CNC(=O)CN1CCC(c2ccc3[nH]c(-c4cc(C)n5nc(C)cc5c4)c(C(C)C)c3c2)CC1` [Example 419, 2-(4-(2-(2,7-dimethylpyrazolo[1,5-a]pyridin-5-yl)-3-isopropyl-1H-indol-5-yl)piperidin-1-yl)-N-methylacetamide], the pIC50 at human TLR7 is > 7.00; against human TLR8, 6.00 to 7.00; against human TLR9 it was 4.30 to 6.00.

With `CC(C)c1c(-c2ccnc3[nH]ncc23)[nH]c2ccc(C3CCN(Cc4cn(C)cn4)CC3)cc12` [Example 906, 4-(3-isopropyl-5-(1-((1-methyl-1H-imidazol-4-yl)methyl)piperidin-4-yl)-1H-indol-2-yl)-1H-pyrazolo[3,4-b]pyridine], the figures for the pIC50 on human TLR7, against human TLR8 and on human TLR9 were > 7.00, > 7.00 and 6.00 to 7.00, respectively.

For the compound `CCc1c(-c2ccc3nncn3n2)[nH]c2ccc(C3CCNCC3)cc12` [Example 184, 6-(3-ethyl-5-(piperidin-4-yl)-1H-indol-2-yl)-[1,2,4] triazolo[4,3-b]pyridazine], the pIC50 at human TLR7, at human TLR8 and against human TLR9 was 6.00 to 7.00 throughout.

For the compound `Cc1cc(-c2[nH]c3ccc(C4CCN(S(=O)(=O)CCO)CC4)cc3c2C(C)C)cn2nnnc12` [Example 616, 2-((4-(3-isopropyl-2-(8-methyltetrazolo[1,5-a]pyridin-6-yl)-1H-indol-5-yl)piperidin-1-yl)sulfonyl)ethan-1-ol], the pIC50 on human TLR7 is > 7.00; on human TLR8 it was 6.00 to 7.00; against human TLR9, < 4.30.

On to `CNC(=O)CN1CCC(c2ccc3[nH]c(-c4nn5ncnc5c(OC)c4C)c(C(C)C)c3c2)CC1` [Example 281, 2-(4-(3-isopropyl-2-(8-methoxy-7-methyl-[1,2,4]triazolo[1,5-b]pyridazin-6-yl)-1H-indol-5-yl)piperidin-1-yl)-N-methylacetamide], for which the pIC50 at human TLR7 is > 7.00; against human TLR8, > 7.00; against human TLR9, 4.30 to 6.00.

Regarding `CC(C)c1c(-c2cc(F)c3nccn3c2)[nH]c2ccc(C3CCN(C(=O)CN(C)C)CC3)cc12` [Example 544, 2-(dimethylamino)-1-(4-(2-(8-fluoroimidazo[1,2-a]pyridin-6-yl)-3-isopropyl-1H-indol-5-yl)piperidin-1-yl)ethan-1-one], the negative-log IC50 (pIC50) is > 7.00 against human TLR7, > 7.00 against human TLR8 and 4.30 to 6.00 on human TLR9.

Take `Cc1cc(-c2[nH]c3ccc(C4CCN(C(=O)CN(C)C(C)C)CC4)cc3c2C(C)C)cn2nnnc12` [Example 480, 2-(isopropyl(methyl)amino)-1-(4-(3-isopropyl-2-(8-methyltetrazolo[1,5-a]pyridin-6-yl)-1H-indol-5-yl)piperidin-1-yl)ethan-1-one]: the figures for the pIC50 on human TLR7, at human TLR8 and on human TLR9 were > 7.00, > 7.00 and 4.30 to 6.00, respectively.

Regarding `CC(C)c1c(-c2ccn3cnnc3c2)[nH]c2ccc(C3CCN(C(=O)CN(C)C)CC3)cc12` [Example 466, 1-(4-(2-([1,2,4]triazolo[4,3-a]pyridin-7-yl)-3-isopropyl-1H-indol-5-yl)piperidin-1-yl)-2-(dimethylamino)ethan-1-one], the pIC50 was > 7.00 against human TLR7, 6.00 to 7.00 at human TLR8 and 6.00 to 7.00 on human TLR9.

Turning to `CNC(=O)CN1CCC(c2ccc3[nH]c(-c4cc(C)c5oc(C)nc5c4)c(C(C)C)c3c2)CC1` [Example 339, 2-(4-(2-(2,7-dimethylbenzo[d]oxazol-5-yl)-3-isopropyl-1H-indol-5-yl)piperidin-1-yl)-N-methylacetamide], the pIC50 against human TLR7 is > 7.00; against human TLR8, 6.00 to 7.00; on human TLR9, 4.30 to 6.00.

Take `CC(C)c1c(-c2ccnc3cnn(C)c23)[nH]c2ccc(C3CCNCC3)cc12` [Example 43, 7-(3-isopropyl-5-(piperidin-4-yl)-1H-indol-2-yl)-1-methyl-1H-pyrazolo[4,3-b]pyridine]: the figures for the pIC50 on human TLR7, on human TLR8 and on human TLR9 were 6.00 to 7.00, > 7.00 and 4.30 to 6.00, respectively.

`CNC(=O)CN1CCC(c2ccc3[nH]c(-c4ccnc5[nH]ncc45)c(C(C)C)c3c2)CC1` [Example 276, 2-(4-(3-isopropyl-2-(1H-pyrazolo[3,4-b]pyridin-4-yl)-1H-indol-5-yl)piperidin-1-yl)-N-methylacetamide]: the pIC50 on human TLR7 was > 7.00; against human TLR8 it was > 7.00; at human TLR9, 4.30 to 6.00.

As for `CC(C)c1c(-c2cn3ccnc3cc2C(F)(F)F)[nH]c2ccc(C3CCNCC3)cc12` [Example 135, 6-(3-isopropyl-5-(piperidin-4-yl)-1H-indol-2-yl)-7-(trifluoromethyl)imidazo[1,2-a]pyridine], the negative logarithm of the IC50 (pIC50) against human TLR7 was 6.00 to 7.00; against human TLR8 it was > 7.00; against human TLR9 it was 4.30 to 6.00.
